Square brackets hold non-standard residues; d marks the D form. Peptide text beside a SMILES is read from it. Ala(indol-4-yl) = N[C@@H](Cc1cccc2[nH]ccc12)C(=O)O; NMeR = CN[C@@H](CCCNC(=N)N)C(=O)O; Tle = CC(C)(C)[C@H](N)C(=O)O

The values that follow come from patent US7098307B2, “Neo-tryptophan” (Mayo Foundation for Medical Education and Research, priority 1998, dated 2006).

In data set [1] the target is T1, human NTR1 (Homo sapiens, UniProt P30989).
T1 construct: expressed in transfected cells; host or cells: CHO-K1
In words: PI turnover ([3H]IP1) in intact CHO-K1 cells, human NTR1. The class given is cell-based. As for the experimental part:
(§1) To measure PI turnover, intact CHO-K1 cells were harvested at about 80% confluency. Cells were detached from the petri plates by removal of culture medium followed by incubation of the cellular monolayer for 20 minutes at 37° C. with gentle shaking in a modified Puck's D1 solution containing 2 mM EGTA. […] Briefly, intact CHO cells were prelabeled with D-myo-[^3H]inositol (18.3 Ci/mmol) in the presence of lithium chloride (final concentration, 10 mM). […] For the experiments described herein, the stimulation time was 30 minutes, and the number of CHO cells per assay tube was 1.5×10^5.

A further data set addresses α2-adrenergic receptors. In words: Radiolabeled competitive binding, human brain tissue, adrenergic α2.
A short description of data set [2]: Degradation in human plasma (HPLC peak area). The data set is classed as in vitro ADME. The settings on record: human; 25% plasma, 37° C., 0.5 mg/mL polypeptide; read-out: half-time, Plasma Human (converted). From the text:
For the degradation studies, data were plotted in linear form as a semi-log plot with SigmaPlot for Windows Version 4.00. Linear regression on these plots provided the parameters used to calculate the half-time (t1/2) for degradation of each polypeptide. The correlation coefficient (R) for the linear regression was taken as a measure of the goodness-of-fit.

Data set [3] addresses T2, rat NTR1 (Rattus norvegicus, UniProt P20789).
T2 construct: expressed in transfected cells; host or cells: CHO-K1
In words: Competition binding with [3H]NT, membranes of CHO-K1 cells transfected with rat NTR1. As for the experimental part:
(§2) CHO-K1 cells were stably transfected with nucleic acid encoding either the human NTR1 or the rat NTR1, and cultured in 150 mm petri plates with 35 mL of Dulbecco-modified Eagle's medium containing 100 μM minimal essential medium nonessential amino acids (GIBCO) supplemented with 5% (v/v) FetalClone II bovine serum product (Hyclone Labs, Logan, Utah). CHO cells (subculture 9–19) were harvested at confluency. Briefly, the medium from each plate was removed by aspiration, and the cells washed with 6 mL of 50 mM Tris-HCl (pH 7.4) and resuspended in 5–10 mL of Tris-HCl by scraping the cells with a rubber spatula. The resuspended cells were placed into a centrifuge tube and collected by centrifugation at 300× g for five minutes at 4° C. in a GPR centrifuge (Beckman Instruments, Fullerton, Calif.). The cellular pellet (in 50 mM Tris-HCl, 1 mM EDTA, pH 7.4) was stored at […] until radioligand binding was performed.
(§3) The supernatant was decanted and discarded, and the cellular pellet was resuspended in 2 mL of Tris-HCl, 1 mM EDTA (pH 7.4) followed by homogenization with a Brinkmann Polytron at setting 6 for ten seconds. Centrifugation was repeated as above and the supernatant was decanted and discarded. The resulting final cellular pellet was resuspended in 50 mM Tris-HCl, lmM EDTA, 0.1% bovine serum albumin, and 0.2 mM bacitracin.
(§4) Incubation was at 20° C. for 30 minutes. Each reaction was terminated by addition of cold 0.9% NaCl (5×1.5 mL) followed by rapid filtration through a GF/B filter strip that had been pretreated with 0.2% polyethylenimine.

The nature of data set [4]: Apomorphine-induced climbing, sniffing and licking behavior in rats. The data set is classed as in vivo, rat. As for the experimental part:
Apomorphine was used to assess the ability of NT analogs to act as neuroleptics. Briefly, male Sprague-Dawley rats were pretreated intraperitoneally with either NT69L or saline only. Thirty minutes following pretreatment, the rats received a subcutaneous injection of apomorphine (600 μg/kg). Occasionally, the effectiveness of NT69L was assessed by measuring antinociception and hypothermia just prior to apomorphine administration. Control animals included rats receiving NT69L followed by saline only, and rats receiving no treatment. The apomorphine was dissolved in oxygen-free boiled 0.9% NaCl solution containing 0.1% ascorbic acid and 0.1% metabisulfite to prevent oxidation. The volume of injection was 1 mL/kg under the loose skin at the back of the animal's neck. Inunediately following injection, the rats were placed in cages for observation. About 5–10 minutes later, behavioral monitoring was initiated and lasted for one hour. Climbing episodes were measured by observing the number of times the rat moved up and down in a vertical position during a two minute observation period. Statistical analysis was done using the Student's t-test with P<0.05 being considered significant. Graphs and ED50 data were generated using GraphPad Prism® software (version 2.01, GraphPad Software, Inc., San Diego, Calif.).

Data set [5] addresses T1, human NTR1. Nature of the data set: Competition binding with [3H]NT, membranes of CHO-K1 cells transfected with human NTR1. As for the experimental part:
as §2, §3, §4

Data set [6] in a line: Catalepsy (fixed rearing posture) in mice. The class given is in vivo. As to conditions: 5 mg/kg ip. As for the experimental part:
The following experiments were performed to assess the ability of NT69L to cause and influence catalepsy. Male Sprague-Dawley rats (150–250 g) or CD-1 mice (24–26 g) were housed in a temperature-controlled room in groups of five with free access to food and water. The animals were kept on a 12 hour light/dark cycle, and all tests were performed during the light cycle. The test for catalepsy is well established and quite simple (Munkvad et al., Brain Behav. Evol. 1:89–100(1968)). […] Thirty minutes after injection, the animals were tested for catalepsy. For rats, the test involved simply placing the animal's fore paws on a suspended metal bar 10 mm in diameter, 11 cm above the counter. The time elapsed until the animal's fore paws touch the counter was recorded. […] For mice, catalepsy was scored based on the time that the mice maintained a fixed rearing posture against the side of the cage (Adams et al., Proc. Natl. Acad. Sci. USA 94:12157–12161 (1997)). The cut-off time was 20 seconds, and each animal was tested three times for each time point.

Another data set has as its system NT binding sites. In words: [125I]NT binding in brain tissue of rats chronically treated. The class given is in vivo, rat. The settings on record: 1 mg/kg ip daily four days, 5 mg/kg day five. As for the experimental part:
The effect of chronic treatment with NT69L on the number of NT binding sites within brain was assessed. Rats were treated daily with NT69L (1 mg/kg; ip) for four days. On day five, the rats were treated with 5 mg/kg (ip) NT69L, tested behaviorally, and then sacrificed. The PAG and rest of brain were dissected from the animal and used in NT binding analysis. Briefly, homogenates were prepared from freshly obtained PAG and the rest of brain of rats according to Goedert et al. (Brain Res. 304, 71–81 (1984)) with the following modifications: the assay buffer contained the peptidase inhibitors 1,10 phenanthroline (1 μM) and aprotonin (5 mg/ml). For PAG and rest of brain binding assays, tissues were incubated with 0.3 nM [^125I]NT (NEN, Boston, Mass.) at room temperature for 30 minutes. Total and nonspecific binding was measured and the binding sites were normalized to polypeptide concentrations by BCA protein determination (Pierce Chemical Co., Rockford, Ill.).

The target in data set [7] is T2, rat NTR1. In words: PI turnover ([3H]IP1) in intact CHO-K1 cells, rat NTR1. The class given is cell-based. As for the experimental part: as §1
The mark [8] stands for this setting: 1 mg/kg ip, 30 minutes before apomorphine.

T1 sequence (P30989 whole entry): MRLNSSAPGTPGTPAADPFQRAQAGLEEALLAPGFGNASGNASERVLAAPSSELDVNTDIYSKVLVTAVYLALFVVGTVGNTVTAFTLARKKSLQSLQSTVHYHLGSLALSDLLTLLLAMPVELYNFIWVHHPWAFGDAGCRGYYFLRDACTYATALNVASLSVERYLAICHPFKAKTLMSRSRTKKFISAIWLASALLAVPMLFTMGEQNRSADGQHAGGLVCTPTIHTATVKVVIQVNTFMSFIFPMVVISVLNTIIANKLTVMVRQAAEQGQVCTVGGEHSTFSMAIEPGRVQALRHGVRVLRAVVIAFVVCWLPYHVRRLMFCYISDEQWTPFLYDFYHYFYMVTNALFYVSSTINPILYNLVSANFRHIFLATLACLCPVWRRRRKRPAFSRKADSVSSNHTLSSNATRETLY
T2 sequence (P20789 whole entry): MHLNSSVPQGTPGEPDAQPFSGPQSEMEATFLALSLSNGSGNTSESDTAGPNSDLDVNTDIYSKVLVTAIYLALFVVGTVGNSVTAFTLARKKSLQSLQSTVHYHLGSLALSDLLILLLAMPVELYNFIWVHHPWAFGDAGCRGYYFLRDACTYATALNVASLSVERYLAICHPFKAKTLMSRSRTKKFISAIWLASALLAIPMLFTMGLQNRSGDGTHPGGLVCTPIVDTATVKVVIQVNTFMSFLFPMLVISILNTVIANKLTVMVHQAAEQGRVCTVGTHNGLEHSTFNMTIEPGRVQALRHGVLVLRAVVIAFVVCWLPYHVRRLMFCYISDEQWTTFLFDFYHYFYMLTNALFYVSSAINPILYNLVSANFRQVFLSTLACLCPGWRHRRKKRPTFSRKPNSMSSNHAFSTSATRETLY

In general, EC50 refers to the concentration giving half of the maximal effect. In general, Kd refers to the free concentration of one partner at which half of the binding sites on the other are occupied at equilibrium, for simple one-to-one binding. A higher Kd goes with lower affinity. Consider `CN[C@@H](CCCNC(=N)N)C(=O)N[C@@H](CCCCN)C(=O)N1CCC[C@H]1C(=O)N[C@@H](Cc1cccc2[nH]ccc12)C(=O)N[C@H](C(=O)N[C@@H](CC(C)C)C(=O)O)C(C)(C)C` [NT69L] (H-[NMeR]KP[Ala(indol-4-yl)][Tle]L-OH; N-terminus and C-terminus assumed), for which, on human NTR1 [1], the concentration for a half-maximal effect (EC50) came out at 2.3 nM and the “improvement in potency at PI turnover versus Eisai, human NTR1” value is “about 130 fold”. For the same molecule, the Kd at α2-adrenergic receptors amounted to 58600 nM. In addition, the half-life at 0.5 mg/mL in data set [2] is 20.8 days. In addition, on rat NTR1 [3], the equilibrium dissociation constant (Kd) is 0.82 ± 0.07 nM and the “increase in binding affinity at the rat receptor versus Eisai” value was 6 fold. In data set [4] (setting [8]), the “effect on apomorphine-induced climbing behavior” value is listed as “long-lasting blockade of the climbing behavior”; the “effect on apomorphine-induced sniffing and licking behaviors” value is “did not influence”. Moreover, the “effect on apomorphine-induced climbing behavior” value in data set [4] (5 mg/kg ip) was “completely blocked”. Besides, the “ED50 blockade of apomorphine-induced climbing” value in data set [4] (ip, 75 minutes after NT69L, 45 minutes after apomorphine 600 μg/kg sc) worked out at 0.016 mg/kg. Also, on human NTR1 [5], the dissociation constant (Kd) came out at 1.55 ± 0.09 nM and the “increase in binding affinity at the human receptor versus Eisai” value is 60 fold. Besides, the catalepsy in mice result in [6] is on record as “caused no catalepsy”. In addition, in the data set on NT binding sites (control 2.34), the “[125I]NT binding, PAG tissue” value is 1.89 dpm/μg protein. Moreover, in the data set with NT binding sites (control 3.1), the “[125I]NT binding, rest of brain tissue” value is listed as 2.1 dpm/μg protein. At rat NTR1 [7], the EC50 was 1.34 ± 0.02 nM and the “improvement in potency at PI turnover versus Eisai, rat NTR1” value is on record as “about two fold”.
